Data published in patent US6531469B1, “Substituted 1-(4-piperidyl)-3-(aryl) isothioureas their preparation and their therapeutic application” (Pierre Fabre Medicament, priority 1999, dated 2003).
Where a name gives a salt, the structure may show the parent alone. One block for each compound: values may come before it.

Assays:
anesthetized rabbits = test: Ischemia-reinfusion in anesthetized rabbits, oral route; format: in vivo; conditions: anesthetized rabbit
Text: (§1) The compounds of the present invention of formula I and the therapeutically acceptable salts thereof have advantageous pharmacological properties. These derivatives are active in vitro, on cardiomyocytes, by inhibiting the diastolic contracture induced with veratrine, on rat isolated left atrium. They also abolish the diastolic contracture induced by the global ischemia of infused isolated guinea pig heart according to the Langendorff technique. These compounds are also active in vivo, in reinfusion ischemia in anesthetized rabbits: they inhibit the electrical disturbances in the ECG which are caused by reinfusion ischemia, without any appreciable hemodynamic effect, and are not cardiac depressants. Such compounds are useful preventively or curatively in the treatment of coronaropathies, cardiac and cerebral ischemia in all their forms and in the treatment of atherosclerosis, cardiac insufficiency, pain, migraine and epilepsy.
The compounds of the present invention are also active via the oral route in the test of ischemia-reinfusion in anesthetized rabbits, according to the method of Verscheure et al. (J. Cardiovasc Pharmacol (1995) 25 p 126-133). The results for the compounds of Examples 6 and 14 are given in Table III below, by way of non-limiting example: […]

rat isolated left atrium = test: Inhibition of the contracture with veratrine, rat isolated left atrium; conditions: veratrine-induced contracture, 10^−7 M of test compound
Text: as §1
1) Inhibition of the contracture with veratrine, of rat isolated left atrium, was carried out according to the technique of Le Grand et al. (Naunyn—Schmiedeberg's Arch Pharmacol (1993) 348 p 184-190). The results are given in Table I. The percentages of inhibition are relative to a concentration of 10^−7 M of test compound.

[1] = tested on: infused isolated guinea pig heart; test: Inhibition of diastolic contracture induced by global ischemia of infused isolated guinea pig heart (Langendorff); conditions: global ischemia 50 min, relative to vehicle group; for inhibition at 1 µM: Cavia porcellus, 50 min
Text: as §1
2) Inhibition of the diastolic contracture induced by the global ischemia of infused isolated guinea pig heart is carried out according to the technique described by Le Grand B. et al. (Am. J. Physiol. 269, H533-H540 (1995)). The guinea pig hearts collected are infused with a modified Krebs solution and, after stabilization for 20 minutes, the test compound dissolved in water or in aqueous 1% DMSO solution is added. After 15 minutes, global ischemia is induced by stopping the coronary infusion for 50 minutes, followed by reinfusion for 1 h. The inhibition of ischemic contracture, in the presence of the compounds of the present invention, is measured relative to that obtained in the vehicle group. The results are given in Table II by way of non-limiting example at a concentration of 1 μM.

Compound: CN(C1=Nc2ccccc2CS1)C1CCN(CCCCCOCc2ccc(F)cc2)CC1.O=C(O)/C=C/C(=O)O
melting point: 167 °C

Compound: CN(C1=Nc2ccccc2CS1)C1CCN(CCCOCCc2ccc(F)cc2)CC1 [Example 6, N-Methyl-N-[1-[3-[2-(4-fluorophenyl)ethoxy]propyl]-4-piperidyl]-4H-3,1-benzothiazin-2-amine Hydrogen Fumarate]
% change in arterial pressure (anesthetized rabbits; 0.63 mg/kg p.o.): 0%
% change in heart rate (anesthetized rabbits; 0.63 mg/kg p.o.): −7%
% inhibition of over-increase of ST segment (anesthetized rabbits; 0.63 mg/kg p.o.): 42%
Number of animals with reinfusion arrhythmia (anesthetized rabbits; 0.63 mg/kg p.o.): 3/5
inhibition at 0.1 µM (rat isolated left atrium): 41%
inhibition at 1 µM [1]: 79%

Compound: CN(c1nc2ccccc2s1)C1CCN(CCCCOc2ccc(F)cc2)CC1 [Example R56865, N-(1-(4-(4-fluorophenoxy)butyl)4-piperidyl)-N-methyl-2-benzothiazolamine]
% change in arterial pressure (anesthetized rabbits; 2.5 mg/kg p.o.): 27%
% change in heart rate (anesthetized rabbits; 2.5 mg/kg p.o.): 0%
% inhibition of over-increase of ST segment (anesthetized rabbits; 2.5 mg/kg p.o.): 0%
Number of animals with reinfusion arrhythmia (anesthetized rabbits; 2.5 mg/kg p.o.): 2/5
% change in arterial pressure (anesthetized rabbits; 10 mg/kg p.o.): 15%
% change in heart rate (anesthetized rabbits; 10 mg/kg p.o.): 5%
% inhibition of over-increase of ST segment (anesthetized rabbits; 10 mg/kg p.o.): 100%
Number of animals with reinfusion arrhythmia (anesthetized rabbits; 10 mg/kg p.o.): 0/5
inhibition at 0.1 µM (rat isolated left atrium): 32%

Compound: CN(C1=Nc2ccccc2CS1)C1CCN(CCOCc2ccc(F)cc2)CC1.O=C(O)/C=C/C(=O)O
melting point: 160 to 161 °C

Compound: N-Methyl-N-[1-[2-hydroxy-3-(4-fluorophenylmethoxy)-propyl]-4-piperidyl]-4H-3,1-benzothiazin-2-amine Hemifumarate [Example 23]
% inhibition at 10^−7 M (rat isolated left atrium): 35%

Compound: COc1ccc(CCOCCCCN2CCC(N(C)C3=Nc4ccccc4CS3)CC2)cc1.O=C(O)/C=C/C(=O)O
melting point: 156 °C

Compound: COc1ccc(COCCCN2CCC(N(C)C3=Nc4ccccc4CS3)CC2)cc1.O=C(O)/C=C/C(=O)O
melting point: 166 °C

Compound: CN(C1=Nc2ccc(Cl)cc2CS1)C1CCN(CCCOCCc2ccc(F)cc2)CC1.O=C(O)/C=C/C(=O)O
melting point: 167 to 170 °C

Compound: CN(C1=Nc2ccccc2CS1)C1CCN(CCCOCCc2ccccc2)CC1.O=C(O)/C=C/C(=O)O
melting point: 166 °C

Compound: Fc1ccc(CCOCCCN2CCC(NC3=Nc4ccccc4CO3)CC2)cc1 (as salt: hydrochloride) (hydrate or solvate) [Example 30, N-[1-[3-[2-(4-Fluorophenyl)ethoxypropyl]-4-piperidyl]-4H-3,1-benzoxazin-2-amine Dihydrochloride Hydrate]
melting point: 158 to 159 °C

Compound: CS(=O)(=O)c1cc(C(=O)NC(=N)N)ccc1N1CCCCC1.Cl [HOE 694, 3-(Methylsulfonyl-4-piperidinobenzoyl)guanidine hydrochloride, reference compound]
% diastolic contracture inhibition at 1 μM [1]: 17%

Compound: CN(C1=Nc2ccccc2CS1)C1CCN(CCCOCCCc2ccc(F)cc2)CC1.O=C(O)/C=C/C(=O)O
melting point: 176 °C

Compound: CN(C1=Nc2ccccc2CS1)C1CCN(CCCOCCc2ccc(F)cc2)CC1 (as salt: fumarate) [Example 6, N-Methyl-N-[1-[3-[2-(4-fluorophenyl)ethoxy]propyl]-4-piperidyl]-4H-3,1-benzothiazin-2-amine Hydrogen Fumarate]
melting point: 163 to 164 °C

Compound: Cc1ccc2c(c1)CSC(N(C)C1CCN(CCCOCCc3ccc(F)cc3)CC1)=N2.O=C(O)/C=C/C(=O)O
melting point: 169 to 172 °C

Second part, led by results:

melting point: 165 °C
Compound: COc1ccc(COCCCCN2CCC(N(C)C3=Nc4ccccc4CS3)CC2)cc1.O=C(O)/C=C/C(=O)O

melting point: 163 °C
Compound: COc1ccc(COCCCCCN2CCC(N(C)C3=Nc4ccccc4CS3)CC2)cc1.O=C(O)/C=C/C(=O)O

melting point: 163 to 164 °C
Compound: CN(C1=Nc2ccccc2CS1)C1CCN(CCCOCc2ccc(F)cc2)CC1.O=C(O)/C=C/C(=O)O

melting point: 145 to 146 °C
Compound: CN(C1=Nc2ccccc2CS1)C1CCN(CCOCCc2ccc(F)cc2)CC1 (as salt: fumarate) [Example 9, N-Methyl-N-[1-[2-[2-(4-fluorophenyl)ethoxy]ethyl]-4-piperidyl]-4H-3,1-benzothiazin-2-amine]

melting point: 169 °C
Compound: CN(C1=Nc2ccccc2CS1)C1CCN(CCCCCOCc2ccc(F)c(F)c2)CC1.O=C(O)/C=C/C(=O)O

melting point: 155 °C
Compound: COc1ccc(CCOCCCN2CCC(N(C)C3=Nc4ccccc4CS3)CC2)cc1.O=C(O)/C=C/C(=O)O

melting point: 152 to 153 °C
Compound: COc1ccc(CCOCCN2CCC(N(C)C3=Nc4ccccc4CS3)CC2)cc1.O=C(O)/C=C/C(=O)O

melting point: 173 to 174 °C
Compound: CN(C1=Nc2ccccc2CS1)C1CCN(CCCCOCCc2ccc(F)cc2)CC1.O=C(O)/C=C/C(=O)O [Example 5, N-Methyl-N-[1-[4-[2-(4-fluorophenyl)ethoxy]butyl]-4-piperidyl]-4H-3,1-benzothiazin-2-amine Hydrogen Fumarate]
inhibition at 0.1 µM (rat isolated left atrium): 63%

melting point: 162 °C
% change in arterial pressure (anesthetized rabbits; 0.63 mg/kg p.o.): 3%
Compound: CN(C1=Nc2ccccc2CS1)C1CCN(CCCOCCc2ccc(F)c(F)c2)CC1.O=C(O)/C=C/C(=O)O [Example 14, N-Methyl-N-[1-[3-[2-(3,4-difluorophenyl)ethoxy]propyl]-4-piperidyl]-4H-3,1-benzothiazin-2-amine Hydrogen Fumarate]
% change in heart rate (anesthetized rabbits; 0.63 mg/kg p.o.): −5%
% inhibition of over-increase of ST segment (anesthetized rabbits; 0.63 mg/kg p.o.): 83%
Number of animals with reinfusion arrhythmia (anesthetized rabbits; 0.63 mg/kg p.o.): 0/5
inhibition at 0.1 µM (rat isolated left atrium): 32%
inhibition at 1 µM [1]: 77%

melting point: 170 °C
Compound: CN(C1=Nc2ccccc2CS1)C1CCN(CCCCOCc2ccc(F)c(F)c2)CC1.O=C(O)/C=C/C(=O)O

melting point: 168 °C
Compound: CN(C1=Nc2ccccc2CS1)C1CCN(CCCOCc2ccc(F)c(F)c2)CC1.O=C(O)/C=C/C(=O)O

melting point: 166 to 167 °C
Compound: CN(C1=Nc2ccccc2CS1)C1CCN(CCOCc2ccccc2)CC1.O=C(O)/C=C/C(=O)O

melting point: 68 °C
Compound: COc1cc2c(c(OC)c1OC)N=C(N(C)C1CCN(CCCOCCc3ccc(F)cc3)CC1)SC2.O=C(O)/C=C/C(=O)O

melting point: 132 to 133 °C
Compound: COc1ccc(CCOCC(O)CN2CCC(N(C)C3=Nc4ccccc4CS3)CC2)cc1.O=C(O)/C=C/C(=O)O (stereo not drawn)

% change in arterial pressure (anesthetized rabbits; 0.63 mg/kg p.o.): 5%
Compound: CN(C1=Nc2ccccc2CS1)C1CCN(CCCCOc2ccc(F)c(F)c2)CC1 [Control, N-Methyl-N-[1-[4-(3,4-difluorophenoxy)butyl]-4-piperidyl)-4H-3,1-benzothiazin-2-amine]
% change in heart rate (anesthetized rabbits; 0.63 mg/kg p.o.): 0%
% inhibition of over-increase of ST segment (anesthetized rabbits; 0.63 mg/kg p.o.): 31%
Number of animals with reinfusion arrhythmia (anesthetized rabbits; 0.63 mg/kg p.o.): 1/5
inhibition at 0.1 µM (rat isolated left atrium): 26%
inhibition at 1 µM [1]: 48%

% change in arterial pressure (anesthetized rabbits; 10 mg/kg p.o.): 12%
Compound: CN(c1nc2ccccc2s1)C1CCN(CC(O)COc2ccc(F)cc2)CC1 (stereo not drawn) [Sabeluzole]
% change in heart rate (anesthetized rabbits; 10 mg/kg p.o.): 0%
% inhibition of over-increase of ST segment (anesthetized rabbits; 10 mg/kg p.o.): 34%
Number of animals with reinfusion arrhythmia (anesthetized rabbits; 10 mg/kg p.o.): 3/4
inhibition at 0.1 µM (rat isolated left atrium): 5%

melting point: 163 °C
Compound: CN(C1=Nc2ccccc2CS1)C1CCN(CCCCOCCc2ccc(F)c(F)c2)CC1.O=C(O)/C=C/C(=O)O
